Measurements from paper PMC5869712 (Scientific Reports, 2018).
Where two headings read alike, the source gives them in different places.

Columns and labels:
[1] = target: T1, JAK1 (Homo sapiens, UniProt P23458); assay: Enzymatic Caliper Mobility Shift Assay, ATP at Km; assay type: biochemical
T1 construct: ChemPartner (contract assay service)
From the text: (§1) The assay protocol guides are commercially available from ChemPartner.

[2] = target: T2, JAK2 (Homo sapiens, UniProt O60674); assay: Enzymatic Caliper Mobility Shift Assay, ATP at Km; assay type: biochemical
T2 construct: ChemPartner (contract assay service)
From the text: as §1

[3] = target: T3, JAK3 (Homo sapiens, UniProt P52333); assay: Enzymatic Caliper Mobility Shift Assay, ATP at Km; assay type: biochemical
T3 construct: ChemPartner (contract assay service)
T3 sequence (P52333 1-1124): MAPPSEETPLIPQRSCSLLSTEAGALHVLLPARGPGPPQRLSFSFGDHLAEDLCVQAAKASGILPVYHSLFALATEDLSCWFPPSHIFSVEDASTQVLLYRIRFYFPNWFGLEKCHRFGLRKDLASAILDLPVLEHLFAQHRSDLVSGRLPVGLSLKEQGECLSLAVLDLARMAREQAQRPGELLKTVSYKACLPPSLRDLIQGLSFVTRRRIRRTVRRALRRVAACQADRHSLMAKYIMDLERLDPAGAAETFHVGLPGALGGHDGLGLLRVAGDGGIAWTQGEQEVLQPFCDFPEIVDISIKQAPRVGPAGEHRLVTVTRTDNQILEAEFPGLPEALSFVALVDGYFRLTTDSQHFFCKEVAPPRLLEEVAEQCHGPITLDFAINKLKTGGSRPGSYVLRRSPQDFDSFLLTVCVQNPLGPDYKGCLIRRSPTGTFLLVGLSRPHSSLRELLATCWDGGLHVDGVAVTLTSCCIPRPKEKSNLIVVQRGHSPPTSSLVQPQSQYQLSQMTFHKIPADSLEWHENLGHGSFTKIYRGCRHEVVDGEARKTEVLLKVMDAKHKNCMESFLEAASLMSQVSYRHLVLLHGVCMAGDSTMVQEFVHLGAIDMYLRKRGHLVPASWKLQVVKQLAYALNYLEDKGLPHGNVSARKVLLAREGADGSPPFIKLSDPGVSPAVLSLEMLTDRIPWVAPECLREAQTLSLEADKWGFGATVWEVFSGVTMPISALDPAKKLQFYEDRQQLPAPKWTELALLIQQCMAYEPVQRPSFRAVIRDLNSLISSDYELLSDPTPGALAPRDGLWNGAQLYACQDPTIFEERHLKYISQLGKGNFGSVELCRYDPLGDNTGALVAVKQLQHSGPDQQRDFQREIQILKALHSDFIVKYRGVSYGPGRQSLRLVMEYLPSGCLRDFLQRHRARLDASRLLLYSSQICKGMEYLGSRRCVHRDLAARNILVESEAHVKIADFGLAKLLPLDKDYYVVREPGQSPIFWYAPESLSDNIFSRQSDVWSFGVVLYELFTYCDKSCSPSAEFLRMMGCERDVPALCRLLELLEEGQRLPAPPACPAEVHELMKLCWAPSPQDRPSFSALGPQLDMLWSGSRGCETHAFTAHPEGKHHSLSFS
From the text: as §1

[4] = target: TYK2 (Homo sapiens, UniProt P29597); assay: Enzymatic Caliper Mobility Shift Assay, ATP at Km; assay type: biochemical
From the text: as §1

[5] = target: T4, EGFR (Homo sapiens, UniProt P00533); assay: Cys-containing kinase family panel (EurofinsCerep); assay type: biochemical
T4 construct: EurofinsCerep (contract assay service)
From the text: as §1

[6] = target: T5, TEC (Homo sapiens, UniProt P42680); assay: Cys-containing kinase family panel (EurofinsCerep); assay type: biochemical
T5 construct: EurofinsCerep (contract assay service)
From the text: as §1

[7] = target: T6, TXK (Homo sapiens, UniProt P42681); assay: Cys-containing kinase family panel (EurofinsCerep); assay type: biochemical
T6 construct: EurofinsCerep (contract assay service)
From the text: as §1

[8] = target: T7, Aurora-B (Homo sapiens, UniProt Q96GD4); assay: Eurofins Kinase Profiler panel; assay type: biochemical
T7 construct: Eurofins Pharma Discovery Services UK Limited (Kinase Profiler service)

[9] = target: T8, DDR1 (Homo sapiens, UniProt Q08345); assay: Eurofins Kinase Profiler panel; assay type: biochemical; conditions: read-out: % inhibition (1μM), DMSO control=100%, lower=stronger
T8 construct: purchased Eurofins KinaseProfiler (Eurofins Pharma Discovery Services UK, Dundee); JAK3 also ChemPartner
From the text: as §1

[10] = target: T9, Mer (Homo sapiens, UniProt Q12866); assay: Eurofins Kinase Profiler panel; assay type: biochemical; conditions: read-out: % inhibition (1μM), DMSO control=100%, lower=stronger
T9 construct: purchased Eurofins KinaseProfiler (Eurofins Pharma Discovery Services UK, Dundee); JAK3 also ChemPartner
From the text: as §1

[11] = target: T10, Rsk2 (Homo sapiens, UniProt P51812); assay: Eurofins Kinase Profiler panel; assay type: biochemical; conditions: read-out: % inhibition (1μM), DMSO control=100%, lower=stronger
T10 construct: purchased Eurofins KinaseProfiler (Eurofins Pharma Discovery Services UK, Dundee); JAK3 also ChemPartner
From the text: as §1

[12] = target: T11, SAPK3 (Homo sapiens, UniProt P53778); assay: Eurofins Kinase Profiler panel; assay type: biochemical; conditions: read-out: % inhibition (1μM), DMSO control=100%, lower=stronger
T11 construct: purchased Eurofins KinaseProfiler (Eurofins Pharma Discovery Services UK, Dundee); JAK3 also ChemPartner
From the text: as §1

[13] = target: T12, STK33 (Homo sapiens, UniProt Q9BYT3); assay: Eurofins Kinase Profiler panel; assay type: biochemical; conditions: read-out: % inhibition (1μM), DMSO control=100%, lower=stronger
T12 construct: purchased Eurofins KinaseProfiler (Eurofins Pharma Discovery Services UK, Dundee); JAK3 also ChemPartner
From the text: as §1

[14] = target: T13, TAO1 (Homo sapiens, UniProt Q7L7X3); assay: Eurofins Kinase Profiler panel; assay type: biochemical; conditions: read-out: % inhibition (1μM), DMSO control=100%, lower=stronger
T13 construct: Eurofins Pharma Discovery Services UK Limited (Kinase Profiler service)
From the text: as §1

[15] = target: T14, TBK1 (Homo sapiens, UniProt Q9UHD2); assay: Eurofins Kinase Profiler panel; assay type: biochemical; conditions: read-out: % inhibition (1μM), DMSO control=100%, lower=stronger
T14 construct: purchased Eurofins Pharma Discovery Services UK Limited (Kinase Profiler screening platform)
From the text: as §1

[16] = target: T15, Wee1 (Homo sapiens, UniProt P30291); assay: Eurofins Kinase Profiler panel; assay type: biochemical; conditions: read-out: % inhibition (1μM), DMSO control=100%, lower=stronger
T15 construct: purchased Eurofins Pharma Discovery Services UK Limited (Kinase Profiler screening platform)
From the text: as §1

[17] = target: T16, MST1 (Homo sapiens, UniProt Q13043); assay: Eurofins Kinase Profiler panel; assay type: biochemical; conditions: read-out: % inhibition (1μM), DMSO control=100%, lower=stronger
T16 construct: purchased Eurofins Pharma Discovery Services UK Limited (Kinase Profiler screening platform)

[18] = test system: IL-6-induced STAT3 phosphorylation (JAK1); assay: IL-6-induced pSTAT3 in total lymphocytes in hPBMCs, flow cytometry; assay type: cell-based, human
[19] = test system: Th1, Th17 and Treg cells of CIA mice; assay: Flow cytometry analysis of Th1, Th17 and Treg in CIA mice; assay type: in vivo, mouse; conditions: 100 mg/kg
Procedure: On day 32 after the indicated treatments, mice were sacrificed to obtain cells from the spleen. Then, the cells were incubated with the corresponding antibodies to detect Th1, Th17 cells and Treg cells. CD4^+ IFN-γ^+ represents Th1 cells, CD4^+ IL-17^+ represents Th17 cells in […]. CD4^+ Foxp3^+ represents Treg cells. The analyses of cells were performed as described above.

[20] = test system: IFN-γ-induced JAK/STAT1 phosphorylation in U2OS cells (JAK1/JAK2); assay: STAT1 phosphorylation induced by IFN-γ in U2OS cells, Western blot; conditions: for IC50: Homo sapiens

T7 sequence (Q96GD4 whole entry): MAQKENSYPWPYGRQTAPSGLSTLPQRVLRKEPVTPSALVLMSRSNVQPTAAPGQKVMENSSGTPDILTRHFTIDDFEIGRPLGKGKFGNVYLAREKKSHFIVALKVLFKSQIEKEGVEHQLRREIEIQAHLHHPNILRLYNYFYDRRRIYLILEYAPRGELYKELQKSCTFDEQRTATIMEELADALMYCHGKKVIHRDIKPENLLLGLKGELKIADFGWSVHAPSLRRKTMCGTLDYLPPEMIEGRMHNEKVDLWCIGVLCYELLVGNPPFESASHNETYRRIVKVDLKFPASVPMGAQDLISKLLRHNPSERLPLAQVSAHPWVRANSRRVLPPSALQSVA
T2 sequence (O60674 whole entry): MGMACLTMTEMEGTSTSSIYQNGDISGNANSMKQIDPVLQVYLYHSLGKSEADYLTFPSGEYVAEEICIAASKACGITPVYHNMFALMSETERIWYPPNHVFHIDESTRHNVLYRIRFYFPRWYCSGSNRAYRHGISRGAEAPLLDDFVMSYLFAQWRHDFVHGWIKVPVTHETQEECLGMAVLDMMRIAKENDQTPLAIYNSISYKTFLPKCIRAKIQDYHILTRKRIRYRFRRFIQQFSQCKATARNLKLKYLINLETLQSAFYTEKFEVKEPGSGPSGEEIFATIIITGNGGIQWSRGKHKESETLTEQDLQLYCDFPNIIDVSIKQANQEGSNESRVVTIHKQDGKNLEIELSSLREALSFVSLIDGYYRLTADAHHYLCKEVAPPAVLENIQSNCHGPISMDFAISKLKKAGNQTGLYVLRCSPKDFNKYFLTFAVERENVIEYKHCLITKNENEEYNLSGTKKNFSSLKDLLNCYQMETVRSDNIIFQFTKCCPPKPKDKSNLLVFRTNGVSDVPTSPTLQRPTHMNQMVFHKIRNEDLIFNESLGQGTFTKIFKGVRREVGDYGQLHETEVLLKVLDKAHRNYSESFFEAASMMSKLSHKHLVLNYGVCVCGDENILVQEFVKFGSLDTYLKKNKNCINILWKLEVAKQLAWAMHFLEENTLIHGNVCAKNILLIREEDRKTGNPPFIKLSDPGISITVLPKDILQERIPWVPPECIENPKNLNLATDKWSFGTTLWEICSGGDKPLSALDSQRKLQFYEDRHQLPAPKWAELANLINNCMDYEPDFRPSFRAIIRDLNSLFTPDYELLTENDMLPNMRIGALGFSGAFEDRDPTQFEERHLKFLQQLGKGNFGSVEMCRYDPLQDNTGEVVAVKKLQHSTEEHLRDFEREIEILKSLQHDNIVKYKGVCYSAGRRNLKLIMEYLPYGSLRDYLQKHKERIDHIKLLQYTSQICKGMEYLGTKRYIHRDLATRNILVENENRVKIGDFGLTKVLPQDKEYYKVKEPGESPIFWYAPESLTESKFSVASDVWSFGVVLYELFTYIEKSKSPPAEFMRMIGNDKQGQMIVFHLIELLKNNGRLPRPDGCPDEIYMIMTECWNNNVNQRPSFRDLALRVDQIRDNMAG
T1 sequence (P23458 whole entry): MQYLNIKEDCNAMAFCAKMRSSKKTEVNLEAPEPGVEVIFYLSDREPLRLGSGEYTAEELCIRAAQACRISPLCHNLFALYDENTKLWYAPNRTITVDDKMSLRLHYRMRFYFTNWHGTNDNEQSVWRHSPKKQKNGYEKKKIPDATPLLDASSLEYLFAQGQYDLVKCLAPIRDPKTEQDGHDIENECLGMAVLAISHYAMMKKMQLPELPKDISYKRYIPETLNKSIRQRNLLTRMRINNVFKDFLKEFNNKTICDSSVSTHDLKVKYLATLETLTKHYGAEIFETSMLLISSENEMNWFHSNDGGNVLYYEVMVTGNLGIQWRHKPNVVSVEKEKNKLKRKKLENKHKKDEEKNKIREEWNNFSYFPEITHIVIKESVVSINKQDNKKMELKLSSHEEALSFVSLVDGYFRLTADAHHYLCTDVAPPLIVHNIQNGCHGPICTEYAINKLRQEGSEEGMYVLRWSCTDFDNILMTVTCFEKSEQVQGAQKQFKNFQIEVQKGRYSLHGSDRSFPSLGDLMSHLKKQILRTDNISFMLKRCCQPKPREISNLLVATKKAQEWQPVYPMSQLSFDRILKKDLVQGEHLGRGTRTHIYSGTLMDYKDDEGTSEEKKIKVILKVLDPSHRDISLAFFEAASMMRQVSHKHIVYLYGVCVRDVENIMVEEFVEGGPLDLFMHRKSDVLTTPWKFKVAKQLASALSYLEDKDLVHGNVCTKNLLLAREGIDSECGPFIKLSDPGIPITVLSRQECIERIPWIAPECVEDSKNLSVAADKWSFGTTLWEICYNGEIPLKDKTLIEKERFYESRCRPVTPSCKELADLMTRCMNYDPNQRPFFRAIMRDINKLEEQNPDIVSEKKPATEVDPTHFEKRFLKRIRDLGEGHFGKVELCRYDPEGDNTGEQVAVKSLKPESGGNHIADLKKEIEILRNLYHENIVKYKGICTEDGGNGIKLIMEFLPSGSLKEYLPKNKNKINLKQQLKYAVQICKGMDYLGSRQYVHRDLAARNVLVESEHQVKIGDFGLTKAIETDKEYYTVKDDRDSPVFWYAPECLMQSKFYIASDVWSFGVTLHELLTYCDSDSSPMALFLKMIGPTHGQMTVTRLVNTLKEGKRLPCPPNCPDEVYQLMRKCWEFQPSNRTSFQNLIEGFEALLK
TYK2, sequence (P29597 whole entry): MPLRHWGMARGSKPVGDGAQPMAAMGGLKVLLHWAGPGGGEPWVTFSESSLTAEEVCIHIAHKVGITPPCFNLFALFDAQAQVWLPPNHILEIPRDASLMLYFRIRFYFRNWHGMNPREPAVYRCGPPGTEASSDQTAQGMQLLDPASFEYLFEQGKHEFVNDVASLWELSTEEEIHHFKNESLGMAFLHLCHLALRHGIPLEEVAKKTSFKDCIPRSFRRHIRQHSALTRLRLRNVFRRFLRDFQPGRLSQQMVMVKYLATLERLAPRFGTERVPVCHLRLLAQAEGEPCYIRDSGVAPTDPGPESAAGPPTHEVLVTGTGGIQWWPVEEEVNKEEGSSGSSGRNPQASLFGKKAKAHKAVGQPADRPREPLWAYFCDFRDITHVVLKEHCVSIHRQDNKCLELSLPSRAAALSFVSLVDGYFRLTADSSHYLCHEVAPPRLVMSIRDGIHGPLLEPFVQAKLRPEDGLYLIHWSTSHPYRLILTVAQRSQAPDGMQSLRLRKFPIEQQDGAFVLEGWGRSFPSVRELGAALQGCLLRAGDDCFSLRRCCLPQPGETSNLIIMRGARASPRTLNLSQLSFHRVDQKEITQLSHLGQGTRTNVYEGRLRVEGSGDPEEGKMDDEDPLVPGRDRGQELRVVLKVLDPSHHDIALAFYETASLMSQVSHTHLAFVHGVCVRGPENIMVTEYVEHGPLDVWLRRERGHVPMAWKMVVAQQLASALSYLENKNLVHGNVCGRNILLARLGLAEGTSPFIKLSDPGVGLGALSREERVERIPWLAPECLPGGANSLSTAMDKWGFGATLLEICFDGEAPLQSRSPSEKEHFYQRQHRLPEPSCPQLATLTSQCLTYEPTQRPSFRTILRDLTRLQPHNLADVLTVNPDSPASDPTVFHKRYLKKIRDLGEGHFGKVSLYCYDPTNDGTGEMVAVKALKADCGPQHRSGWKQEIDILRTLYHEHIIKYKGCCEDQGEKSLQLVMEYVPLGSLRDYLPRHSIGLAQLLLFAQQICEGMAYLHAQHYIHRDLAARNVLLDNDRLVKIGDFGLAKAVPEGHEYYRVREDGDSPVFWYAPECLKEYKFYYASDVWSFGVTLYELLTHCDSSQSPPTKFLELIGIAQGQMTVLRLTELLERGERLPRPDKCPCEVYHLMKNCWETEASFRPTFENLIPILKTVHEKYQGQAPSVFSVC
T11 sequence (P53778 whole entry): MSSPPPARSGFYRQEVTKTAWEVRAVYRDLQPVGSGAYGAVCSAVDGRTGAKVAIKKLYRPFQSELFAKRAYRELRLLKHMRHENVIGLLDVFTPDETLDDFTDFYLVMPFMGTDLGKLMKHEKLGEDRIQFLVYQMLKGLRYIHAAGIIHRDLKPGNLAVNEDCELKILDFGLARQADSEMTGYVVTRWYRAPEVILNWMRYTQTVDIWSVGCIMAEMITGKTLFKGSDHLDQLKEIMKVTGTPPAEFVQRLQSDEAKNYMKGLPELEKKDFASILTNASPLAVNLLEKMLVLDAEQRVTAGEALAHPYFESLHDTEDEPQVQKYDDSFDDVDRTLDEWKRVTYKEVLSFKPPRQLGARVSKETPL
T5 sequence (P42680 whole entry): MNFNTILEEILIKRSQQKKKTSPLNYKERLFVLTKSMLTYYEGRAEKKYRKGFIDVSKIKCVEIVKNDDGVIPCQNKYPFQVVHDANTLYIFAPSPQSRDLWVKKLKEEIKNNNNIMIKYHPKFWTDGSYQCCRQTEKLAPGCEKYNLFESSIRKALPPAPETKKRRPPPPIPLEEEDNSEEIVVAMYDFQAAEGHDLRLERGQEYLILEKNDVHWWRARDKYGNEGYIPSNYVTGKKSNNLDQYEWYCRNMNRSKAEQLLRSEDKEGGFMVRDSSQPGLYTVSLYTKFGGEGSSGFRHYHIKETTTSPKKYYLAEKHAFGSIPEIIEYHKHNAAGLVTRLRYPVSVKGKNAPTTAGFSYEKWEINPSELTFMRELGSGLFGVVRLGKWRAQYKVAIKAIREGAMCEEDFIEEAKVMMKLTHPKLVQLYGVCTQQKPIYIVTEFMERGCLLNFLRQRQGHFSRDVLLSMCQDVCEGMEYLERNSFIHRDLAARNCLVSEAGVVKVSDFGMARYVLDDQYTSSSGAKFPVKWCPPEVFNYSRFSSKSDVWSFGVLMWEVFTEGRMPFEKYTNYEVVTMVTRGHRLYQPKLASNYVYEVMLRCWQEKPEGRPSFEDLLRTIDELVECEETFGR

## C=CC(=O)N[C@@H]1CCCN(c2ncnc3[nH]ccc23)C1 [RB1]
[1]
  IC50: > 5 µM
[1]; at concentrations up to 5 µM
  inhibition of JAK1: did not inhibit
[2]
  IC50: > 5 µM
[2]; at concentrations up to 5 µM
  inhibition of JAK2: did not inhibit
[3]
  IC50: 0.04 µM
[3]; kinase assay
  preference for JAK3 above JAK2, JAK1 and TYK2: over 100 fold
[4]; TYK2, ATP 16.0 μM (Km)
  IC50: > 5 µM
[4]; at concentrations up to 5 µM
  inhibition of TYK2: did not inhibit
[5]
  inhibition at 1 µM: 11.2%
[6]
  inhibition at 1 µM: 14%
[7]
  inhibition at 1 µM: 7.25%
[8]; estimated
  IC50: > 0.8 µM
[8]; read-out: % inhibition (1μM), 1 µM, DMSO control=100%, lower=stronger
  activity at 1 µM: 12%
[9]
  activity at 1 µM: 75%
[10]
  activity at 1 µM: 68%
[11]
  activity at 1 µM: 76%
[12]
  activity at 1 µM: 94%
[13]
  activity at 1 µM: 93%
[14]
  activity at 1 µM: 70%
[15]
  activity at 1 µM: 96%
[16]
  activity at 1 µM: 90%
[17]
  activity at 1 µM: 83%
[18]; Homo sapiens, Lymphocyte, hPBMC total lymphocytes, trigger IL-6, readout pSTAT3, JAK1
  IC50: > 40 µM
[18]; hPBMC, IL-6 pSTAT3 over IL-2 pSTAT5
  Selectivity JAK1/JAK3: >400 fold
[19]; model 0.55%
  percentage of Treg cells: 1.13%
[19]; model 1.12%, normal […]
  Th1 cells: 0.49%
[19]; model 2.13%
  percentage of Th17 cells: 0.80%
[20]; U2OS, read-out: IC50 (nM) JAK1
  IC50: > 50000 nM
[20]; U2OS, read-out: IC50 (nM) JAK2
  IC50: > 50000 nM
[20]; U2OS cells, RB1 at concentrations over 50 μM
  IFN-γ-induced phosphorylation of STAT1: not affected
[20]; U2OS, IFN-γ, pSTAT1
  Selectivity JAK1/JAK3: > 1000
  Selectivity JAK2/JAK3: > 1000
